Target: T1, human D3 dopamine receptors (Homo sapiens, UniProt P35462)
T1 construct: expressed in transfected cells; host or cells: CHO cells (crude cell membranes)
Experiment: displacement of [125I] iodosulpride binding to cloned human D3 dopamine receptors expressed in CHO cells
Settings: 0.1 nM [125I] iodosulpride, CHO cell membranes, 30 min at 37° C.; read-out: pKi at the D3 receptor (converted)
Method: The inhibition constants (Ki) of test compounds for displacement of [^125I] iodosulpride binding to human D3 dopamine receptors expressed in CHO cells were determined as follows. […] Cultures were grown as monolayers or in suspension in standard cell culture media. Cells were recovered by scraping (from monolayers) or by centrifugation (from suspension cultures), and were washed two or three times by suspension in phosphate buffered saline followed by collection by centrifugation. Cell pellets were stored frozen at −40° C. Crude cell membranes were prepared by homogenisation followed by high-speed centrifugation, and characterisation of cloned receptors achieved by radioligand binding.
Cell pellets were gently thawed at room temperature, and resuspended in about 20 volumes of ice-cold 50 mM Tris salts (pH 7.4@37° C.), 20 mM EDTA, 0.2 M sucrose. The suspension was homogenised using an Ultra-Turrax at full speed for 15 sec. The homogenate was centrifuged at 18,000 r.p.m for 20 min at 4° C. in a Sorvall RC5C centrifuge. The membrane pellet was resuspended in ice-cold 50 mM Tris salts (pH 7.4@37° C.), using an Ultra-Turrax, and recentrifuged at 18,000 r.p.m for 15 min at 4° C. in a Sorvall RC5C. The membranes were washed two more times with ice-cold 50 mM Tris salts (pH 7.4@37° C.). The final pellet was resuspended in 50 mM Tris salts (pH 7.4@37° C.), and the protein content determined using bovine serum albumin as a standard (Bradford, M. M. (1976) Anal. Biochem. 72, 248-254).
Crude cell membranes were incubated with 0.1 nM [^125I] iodosulpride (˜2000 Ci/mmol; Amersham, U. K.), and the test compound in a buffer containing 50 mM Tris salts (pH 7.4@37° C.), 120 mM NaCl, 5 mM KCl, 2 mM CaCl2, 1 mM MgCl2, 0.1% (w/v) bovine serum albumin, in a total volume of 1 ml for 30 min at 37° C. Following incubation, samples were filtered using a Brandel Cell Harvester, and washed three times with ice-cold 50 mM Tris salts (pH 7.4@37° C.), 120 mM NaCl, 5 mM KCl, 2 mM CaCl2, 1 mM MgCl2. The radioactivity on the filters was measured using a Cobra gamma counter (Canberra Packard). Non-specific binding was defined as the radioligand binding remaining after incubation in the presence of 100 μM iodosulpride. For competition curves, 14 concentrations (half-log dilutions) of competing cold drug were used. Competition curves were analysed simultaneously whenever possible using non-linear least-squares fitting procedures, capable of fitting one, two or three site models.

T1 sequence (P35462 whole entry): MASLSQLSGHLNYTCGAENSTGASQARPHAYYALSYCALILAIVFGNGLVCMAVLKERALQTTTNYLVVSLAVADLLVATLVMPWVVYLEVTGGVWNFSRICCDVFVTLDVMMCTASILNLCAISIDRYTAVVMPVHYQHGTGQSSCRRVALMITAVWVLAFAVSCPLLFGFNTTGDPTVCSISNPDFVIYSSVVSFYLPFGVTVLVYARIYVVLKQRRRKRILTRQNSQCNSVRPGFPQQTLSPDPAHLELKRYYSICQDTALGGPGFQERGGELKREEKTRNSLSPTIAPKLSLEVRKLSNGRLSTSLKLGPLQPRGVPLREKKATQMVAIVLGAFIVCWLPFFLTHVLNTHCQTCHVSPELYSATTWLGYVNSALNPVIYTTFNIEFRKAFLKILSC

Ki, 3.16 to 12.6 nM:
N#Cc1ccc2c(c1)CCN(CC[C@H]1CC[C@H](NC(=O)Cc3ccccc3)CC1)C2 [Example 1, trans-6-Cyano-2-(2-(1-(4-phenylacetamido)cyclohexyl)ethyl)-1,2,3,4-tetrahydroisoquinoline]
N#Cc1ccc2c(c1)CCN(CC[C@H]1CC[C@H](NC(=O)Cc3ccc4ccccc4c3)CC1)C2 [Example 2, trans-6-Cyano-2-(2-(1-(4-(2-naphthyl)acetamido)cyclohexyl)ethyl)-1,2,3,4-tetrahydroisoquinoline]
N#Cc1ccc2c(c1)CCN(CC[C@H]1CC[C@H](NC(=O)Cc3ccccc3F)CC1)C2 [Example 3, trans-6-Cyano-2-(2-(1-(4-(2-fluorophenyl)acetamido)cyclohexyl)ethyl)-1,2,3,4-tetrahydroisoquinoline]
N#Cc1ccc2c(c1)CCN(CC[C@H]1CC[C@H](NC(=O)Cc3cccc(F)c3)CC1)C2 [Example 4, trans-6-Cyano-2-(2-(1-(4-(3-fluorophenyl)acetamido)cyclohexyl)ethyl)-1,2,3,4-tetrahydroisoquinoline]
N#Cc1cccc(CC(=O)N[C@H]2CC[C@H](CCN3CCc4cc(C#N)ccc4C3)CC2)c1 [Example 6, trans-6-Cyano-2-(2-(1-(4-(3-cyanophenyl)acetamido)cyclohexyl)ethyl)-1,2,3,4-tetrahydroisoquinoline]
N#Cc1ccc(CC(=O)N[C@H]2CC[C@H](CCN3CCc4cc(C#N)ccc4C3)CC2)cc1 [Example 7, trans-6-Cyano-2-(2-(1-(4-(4-cyanophenyl)acetamido)cyclohexyl)ethyl)-1,2,3,4-tetrahydroisoquinoline]
N#Cc1ccc2c(c1)CCN(CC[C@H]1CC[C@H](NC(=O)CCc3ccccc3)CC1)C2 [Example 8, trans-6-Cyano-2-(2-(1-(4-(3-phenyl)propionamido)cyclohexyl)ethyl)-1,2,3,4-tetrahydroisoquinoline]
N#Cc1ccc2c(c1)CCN(CC[C@H]1CC[C@H](NC(=O)Cc3ccc(-c4ccccc4)cc3)CC1)C2 [Example 9, trans-6-Cyano-2-(^2-(1-(4-(4-phenyl)phenylacetamido)cyclohexyl)-ethyl)-1,2,3,4-tetrahydroisoquinoline]
N#Cc1ccc2c(c1)CCN(CC[C@H]1CC[C@H](NC(=O)Cc3cccs3)CC1)C2 [Example 10, trans-6-Cyano-2-(2-(1-(4-(2-thienyl)acetamido)cyclohexyl)ethyl)-1,2,3,4-tetrahydroisoquinoline]
N#Cc1ccc2c(c1)CCN(CC[C@H]1CC[C@H](NC(=O)Cc3ccsc3)CC1)C2 [Example 11, trans-6-Cyano-2-(2-(1-(4-(3-thienyl)acetamido)cyclohexyl)ethyl)-1,2,3,4-tetrahydroisoquinoline]
N#Cc1ccc2c(c1)CCN(CC[C@H]1CC[C@H](NC(=O)Cc3c[nH]c4ccccc34)CC1)C2 [Example 12, trans-6-Cyano-2-(2-(1-(4-(3-indolyl)acetamido)cyclohexyl)ethyl)-1,2,3,4-tetrahydroisoquinoline]
N#Cc1ccc2c(c1)CCN(CC[C@H]1CC[C@H](NC(=O)Cc3cc(F)ccc3F)CC1)C2 [Example 13, trans-6-Cyano-2-(2-(1-(4-(2,5-difluoro)phenylacetamido)cyclohexyl)-ethyl)-1,2,3,4-tetrahydroisoquinoline]
N#Cc1ccc2c(c1)CCN(CC[C@H]1CC[C@H](NC(=O)Cc3ccc(F)c(F)c3)CC1)C2 [Example 14, trans-6-Cyano-2-(2-(1-(4-(3,4-difluoro)phenylacetamido)cyclohexyl)-ethyl)-1,2,3,4-tetrahydroisoquinoline]
N#Cc1ccc2c(c1)CCN(CC[C@H]1CC[C@H](NC(=O)Cc3ccccn3)CC1)C2 [Example 15, trans-6-Cyano-2-(2-(1-(4-(2-pyridyl)acetamido)cyclohexyl)ethyl)-1,2,3,4-tetrahydroisoquinoline]
N#Cc1ccc2c(c1)CCN(CC[C@H]1CC[C@H](NC(=O)Cc3ccc(Br)cc3)CC1)C2 [Example 16, trans-6-Cyano-2-(2-(1-(4-(4-bromo)phenylacetamido)cyclohexyl)-ethyl)-1,2,3,4-tetrahydroisoquinoline]
N#Cc1ccc2c(c1)CCN(CC[C@H]1CC[C@H](NC(=O)Cc3ccc(I)cc3)CC1)C2 [Example 17, trans-6-Cyano-2-(2-(1-(4-(4-iodo)phenylacetamido)cyclohexyl)ethyl)-1,2,3,4-tetrahydroisoquinoline]
N#Cc1ccc2c(c1)CCN(CC[C@H]1CC[C@H](NC(=O)Cc3cccc(Br)c3)CC1)C2 [Example 18, trans-6-Cyano-2-(2-(1-(4-(3-bromo)phenylacetamido)cyclohexyl)-ethyl)-1,2,3,4-tetrahydroisoquinoline]
N#Cc1ccc2c(c1)CCN(CC[C@H]1CC[C@H](NC(=O)Cc3ccc(F)cc3F)CC1)C2 [Example 19, trans-6-Cyano-2-(2-(1-(4-(2,4-difluoro)phenylacetamido)cyclohexyl)-ethyl)-1,2,3,4-tetrahydroisoquinoline]
N#Cc1ccc2c(c1)CCN(CC[C@H]1CC[C@H](NC(=O)Cc3cccc(C(F)(F)F)c3)CC1)C2 [Example 20, trans-6-Cyano-2-(2-(1-(4-(3-trifluoromethyl)phenylacetamido)-cyclohexyl)ethyl)-1,2,3,4-tetrahydroisoquinoline]
CC(C)(C)c1ccc(CC(=O)N[C@H]2CC[C@H](CCN3CCc4cc(C#N)ccc4C3)CC2)cc1 [Example 21, trans-6-Cyano-2-(2-(1-(4-(4-t-butyl)phenylacetamido)cyclohexyl)-ethyl)-1,2,3,4-tetrahydroisoquinoline]
N#Cc1ccc2c(c1)CCN(CC[C@H]1CC[C@H](NC(=O)Cc3csc4ccccc34)CC1)C2 [Example 22, trans-6-Cyano-2-(2-(1-(4-(3-benzo[b]thienyl)acetarnido)cyclohexyl)-ethyl)-1,2,3,4-tetrahydroisoquinoline]
N#Cc1ccc2c(c1)CCN(CC[C@H]1CC[C@H](NC(=O)COc3ccccc3)CC1)C2 [Example 23, trans-6-Cyano-2-(2-(1-(4-phenoxyacetamido)cyclohexyl)ethyl)-1,2,3,4-tetrahydroisoquinoline]
N#Cc1ccc2c(c1)CCN(CC[C@H]1CC[C@H](NC(=O)CCCc3ccccc3)CC1)C2 [Example 24, trans-6-Cyano-2-(2-(1-(4-(4-phenyl)butyramido)cyclohexyl)ethyl)-1,2,3,4-tetrahydroisoquinoline]
N#Cc1ccc2c(c1)CCN(CC[C@H]1CC[C@H](NC(=O)CCc3ccc(F)cc3)CC1)C2 [Example 25, trans-6-Cyano-2-(2-(1-(4-(3-(4-fluoro)phenyl)propionamido)-cyclohexyl)ethyl)-1,2,3,4-tetrahydroisoquinoline]
N#Cc1ccc2c(c1)CCN(CC[C@H]1CC[C@H](NC(=O)Cc3ccnc4ccccc34)CC1)C2 [Example 26, trans-6-Cyano-2-(2-(1-(4-(4-quinolyl)acetamido)-cyclohexyl)ethyl)-1,2,3,4-tetrahydroisoquinoline]
N#Cc1ccc2c(c1)CCN(CC[C@H]1CC[C@H](NC(=O)Cc3ccc(C(F)(F)F)cc3)CC1)C2 [Example 27, trans-6-Cyano-2-(2-(1-(4-(4-trifluoromethyl)phenylacetamido)-cyclohexyl)ethyl)-1,2,3,4-tetrahydroisoquinoline]
N#Cc1ccc2c(c1)CCN(CC[C@H]1CC[C@H](NC(=O)Cc3cc(F)cc(F)c3)CC1)C2 [Example 28, trans-6-Cyano-2-(2-(1-(4-(3,5-difluoro)phenylacetamido)-cyclohexyl)ethyl)-1,2,3,4-tetrahydroisoquinoline]
N#Cc1ccc2c(c1)CCN(CC[C@H]1CC[C@H](NC(=O)Cc3cc4ccccc4s3)CC1)C2 [Example 29, trans-6-Cyano-2-(2-(1-(4-(2-benzothiophenyl)acetamido)-cyclohexyl)ethyl)-1,2,3,4-tetrahydroisoquinoline]
N#Cc1ccc2c(c1)CCN(CC[C@H]1CC[C@H](NC(=O)Cc3ccco3)CC1)C2 [Example 30, trans-6-Cyano-2-(2-(1-(4-(2-furanyl)acetamido)-cyclohexyl)ethyl)-1,2,3,4-tetrahydroisoquinoline]

From patent US6414154B1, “Tetraisoquinoline derivatives as modulators of dopamine D3 receptors” (SmithKline Beecham p.l.c., priority 1998, dated 2002)
